{"source": "paper PMC3982398", "about": "(Biochemical pharmacology, 2009)", "key": {"[1]": {"details": "compared with glyburide; ref [12], [13]; cited from earlier work"}, "[2]": {"system": "human placental microsomes"}, "human hepatic microsomes [3]": {"system": "human hepatic microsomes"}, "[4]": {"system": "human placental microsomes", "details": "sulfaphenazole 10 μM, lansoprazole 10 μM, troleandomycin 50 and 200 μM, quinidine 5 μM, 4-methylpyrazole 25 μM"}, "[5]": {"details": "cited from earlier work"}, "human hepatic microsomes [6]": {"system": "human hepatic microsomes", "assay_type": "in vitro ADME", "details": "ketoconazole 0.5 μM, troleandomycin 50 μM, sulfaphenazole 40 μM; for decrease in formation of M2a: lansoprazole 10 μM; for decrease in the aggregate (total) amount of metabolites formed: α-naphthoflavone 0.05 μM"}, "CYP19": {"system": "CYP19", "details": "ref [27]; cited from earlier work"}}, "note": "Read-outs that look alike come from different tables or passages of the source.", "data": [{"smiles": "COc1ccc(Cl)cc1C(=O)NCCc1ccc(S(=O)(=O)NC(=O)N[C@H]2CCC[C@@H](O)C2)cc1", "note": "(relative stereo) [M2b, 3-cis-hydroxycyclohexyl glyburide]", "values": [{"measurement": "potency in lowering the concentration of glucose", "setting": "[1]", "result": "as potent as glyburide"}, {"measurement": "amount of metabolite formed as percent of the total metabolites", "setting": "[2]", "result": 1, "unit": "%"}, {"measurement": "amount of metabolite formed as percent of the total metabolites", "setting": "human hepatic microsomes [3]", "result": 12, "unit": "%"}]}, {"smiles": "COc1ccc(Cl)cc1C(=O)NCCc1ccc(S(=O)(=O)NC(=O)N[C@@H]2CCCC[C@H]2O)cc1", "note": "(relative stereo) [M4, 2-trans-hydroxycyclohexyl glyburide]", "values": [{"measurement": "amount of metabolite formed as percent of the total metabolites", "setting": "[2]", "result": 1, "unit": "%"}, {"measurement": "amount of metabolite formed as percent of the total metabolites", "setting": "human hepatic microsomes [3]", "result": 4, "unit": "%"}]}, {"smiles": "C[C@]12CCC(=O)C(O)=C1CC[C@@H]1[C@@H]2CC[C@]2(C)C(=O)CC[C@@H]12", "note": "[4-hydroxyandrostenedione]", "values": [{"measurement": "decrease in M5 formation", "setting": "[4]; 4-hydroxyandrostenedione 10 μM, α-naphthoflavone 0.05 μM", "result": 87, "unit": "%"}]}, {"smiles": "COc1ccc(Cl)cc1C(=O)NCCc1ccc(S(=O)(=O)NC(=O)N[C@H]2CC[C@H](O)CC2)cc1", "note": "[M1, 4-trans-hydroxycyclohexyl glyburide]", "values": [{"measurement": "potency in lowering the concentration of glucose", "setting": "[1]", "result": "as potent as glyburide"}, {"measurement": "amount of metabolite formed as percent of the total metabolites", "setting": "[2]", "result": 4, "unit": "%"}]}, {"smiles": "COc1ccc(Cl)cc1C(=O)NCCc1ccc(S(=O)(=O)NC(=O)N[C@H]2CC[C@@H](O)CC2)cc1", "note": "[M2a, 4-cis-hydroxycyclohexyl glyburide]", "values": [{"measurement": "amount of metabolite formed as percent of the total metabolites", "setting": "[2]", "result": "negligible"}, {"measurement": "amount of metabolite formed as percent of the total metabolites", "setting": "human hepatic microsomes [3]", "result": 11, "unit": "%"}]}, {"smiles": "COc1ccc(Cl)cc1C(=O)NCCc1ccc(S(=O)(=O)NC(=O)NC2CCCC(O)C2)cc1", "note": "(stereo not drawn) [M3, 3-trans-hydroxycyclohexyl glyburide]", "values": [{"measurement": "amount of metabolite formed as percent of the total metabolites", "setting": "[2]", "result": 1, "unit": "%"}, {"measurement": "amount of metabolite formed as percent of the total metabolites", "setting": "human hepatic microsomes [3]", "result": 6, "unit": "%"}]}, {"smiles": "COc1ccccc1Oc1c(NS(=O)(=O)c2ccc(C(C)(C)C)cc2)nc(-c2ncccn2)nc1OCCO", "note": "[bosentan]", "values": [{"measurement": "effect of administration on plasma levels of glyburide", "setting": "[5]; ref [18]", "result": "lowered plasma levels of glyburide"}]}, {"smiles": "CC(=O)N1CCN(c2ccc(OCC3COC(Cn4ccnc4)(c4ccc(Cl)cc4Cl)O3)cc2)CC1", "note": "(stereo not drawn) [ketoconazole]", "values": [{"measurement": "decrease in formation of M1", "setting": "human hepatic microsomes [6]", "result": "≤ 20", "unit": "%"}, {"measurement": "decrease in formation of M2b", "setting": "human hepatic microsomes [6]", "result": "≤ 20", "unit": "%"}, {"measurement": "decrease in formation of M3", "setting": "human hepatic microsomes [6]", "result": "≥ 50", "unit": "%"}, {"measurement": "decrease in formation of M4", "setting": "human hepatic microsomes [6]", "result": "≥ 50", "unit": "%"}, {"measurement": "decrease in formation of M5", "setting": "human hepatic microsomes [6]", "result": 93, "unit": "%"}, {"measurement": "decrease in formation of M2a", "setting": "human hepatic microsomes [6]", "result": "approximately 40%"}, {"measurement": "decrease in the aggregate (total) amount of metabolites formed", "setting": "human hepatic microsomes [6]", "result": 53, "unit": "%"}]}, {"smiles": "Cc1c(OCC(F)(F)F)ccnc1C[S+]([O-])c1nc2ccccc2[nH]1", "note": "(stereo not drawn) [lansoprazole]", "values": [{"measurement": "decrease in formation of M2a", "setting": "human hepatic microsomes [6]", "result": "≈ 20%"}, {"measurement": "effect on the aggregate amount of metabolites", "setting": "[4]", "result": "negligible"}]}, {"smiles": "C=C[C@H]1C[N@@]2CC[C@H]1C[C@@H]2[C@@H](O)c1ccnc2ccc(OC)cc12", "note": "[quinidine]", "values": [{"measurement": "effect on the aggregate amount of metabolites", "setting": "[4]", "result": "negligible"}]}, {"smiles": "CO[C@H]1/C=C/O[C@@]2(C)Oc3c(C)c(O)c4c(O)c(c(/C=N/N5CCN(C)CC5)c(O)c4c3C2=O)NC(=O)/C(C)=C\\C=C\\[C@H](C)[C@H](O)[C@@H](C)[C@@H](O)[C@@H](C)[C@H](OC(C)=O)[C@@H]1C", "note": "[rifampin]", "values": [{"measurement": "effect of administration on plasma levels of glyburide", "setting": "[5]; ref [30]", "result": "lowered plasma levels of glyburide"}]}, {"smiles": "Nc1ccc(S(=O)(=O)Nc2ccnn2-c2ccccc2)cc1", "note": "[sulfaphenazole]", "values": [{"measurement": "decrease in formation of M1", "setting": "human hepatic microsomes [6]", "result": "approximately 40%"}, {"measurement": "decrease in formation of M2b", "setting": "human hepatic microsomes [6]", "result": "approximately 40%"}, {"measurement": "decrease in formation of M3", "setting": "human hepatic microsomes [6]", "result": "≤ 20", "unit": "%"}, {"measurement": "decrease in formation of M4", "setting": "human hepatic microsomes [6]", "result": "≤ 20", "unit": "%"}, {"measurement": "decrease in formation of M5", "setting": "human hepatic microsomes [6]", "result": "≤ 20", "unit": "%"}, {"measurement": "decrease in formation of M2a", "setting": "human hepatic microsomes [6]", "result": "approximately 40%"}, {"measurement": "decrease in the aggregate (total) amount of metabolites formed", "setting": "human hepatic microsomes [6]", "result": 28, "unit": "%"}, {"measurement": "effect on the aggregate amount of metabolites", "setting": "[4]", "result": "negligible"}]}, {"smiles": "O=c1cc(-c2ccccc2)oc2c1ccc1ccccc12", "note": "[α-naphthoflavone]", "values": [{"measurement": "inhibition of CYP19", "setting": "CYP19", "result": "inhibitor of CYP19"}]}]}
